Laboratory results published in patent US20220160750A1, “SINGLE-NUCLEI CHARACTERIZATION OF AMYOTROPHIC LATERAL SCLEROSIS FRONTAL CORTEX” (President and Fellows of Harvard College, priority 2020, published 2022).
Where a SMILES comes first, the peptide text is derived from it. The star is where a group is joined. Cbz = O=C(OCc1ccccc1)*

Legend:
[1] = system: neurons derived from human Pluripotent Stem Cells (hPSC); assay: Bulk RNA-sequencing of hPSC-derived neurons after proteasome inhibitor treatment; format: cell-based; details: MG132 applied for 24 hrs, compared with excitatory neurons from sALS patients
Procedure: (§1) In contrast, DEGs identified in THY1-cells were connected to cellular stresses previously associated with ALS^1,2 (FIG. 7D) and many were shared with transcriptional changes identified in patients' excitatory cells as a whole (FIG. 8B). […] It was next asked if aspects of these changes could be modeled in vitro using neurons derived from human Pluripotent Stem Cells (hPSC) (FIG. 15A).
Human embryonic stem cells were cultured in mTESR (Stemcell technologies) on matrigel (Corning). Neurons were generated from HuES-3-Hb9:GFP based on the motor neuron differentiation protocol previously described^27. Upon completion of the differentiation protocol, cells were sorted via flow-cytometry based on GFP signal intensity to yield GFP-positive neurons that were plated on PDL/laminin-coated plates (Sigma, Life technologies). […]
RNA was extracted using RNeasy Plus kit (Qiagen), libraries were prepared using the Illumina TruSeq RNA kit v2 according to the manufacturer's directions, and sequenced at the Broad Institute core with samples randomly assigned between two flow chambers. […] The read counts were obtained from the aligned BAM-files in R using Rsubread. Differential gene expression was analyzed from the read counts in DESeq2 using a Wald's test for the treatment dosage and controlling for the sequencing flow cell.

[2] = system: neurons derived from human Pluripotent Stem Cells (hPSC); assay: TDP-43 localisation (immunofluorescence) after proteasome inhibitor treatment of hPSC-derived neurons; format: cell-based; details: MG132 applied for 24 hrs
Procedure: as §1
Human embryonic stem cells were cultured in mTESR (Stemcell technologies) on matrigel (Corning). Neurons were generated from HuES-3-Hb9:GFP based on the motor neuron differentiation protocol previously described^27. Upon completion of the differentiation protocol, cells were sorted via flow-cytometry based on GFP signal intensity to yield GFP-positive neurons that were plated on PDL/laminin-coated plates (Sigma, Life technologies). Neurons were maintained in Neurobasal medium (Life Technologies) supplemented with N2 (Stemcell technologies), B27 (Life technologies), glutamax (Life technologies), non-essential amino acids (Life technologies), and neurotrophic factors (BDNF, GDNF, CNTF), and were grown for 28 days before the application of the proteasome inhibitors MG132 for 24 hrs.

With `CC(C)C[C@@H](C=O)NC(=O)[C@H](CC(C)C)NC(=O)[C@H](CC(C)C)NC(=O)OCc1ccccc1` [MG132] (Cbz-Leu-Leu-Leu-aldehyde) as the compound, how does the “transcriptomic changes after treatment (RNA-sequencing)” value [1] read?
The value was “widespread transcriptomic changes after treatment”.

And the “nuclear loss of TDP-43” value [2]?
The value was “sufficient to induce nuclear loss of TDP-43”.
